Assay results as given in US20250154088A1, “PRODUCT 1,3-BUTYLENE GLYCOL” (KH Neochem Co., Ltd., priority 2022, published 2025).

Experiments:
[1] = system: cysteine-containing peptide for DPRA; experiment: Skin sensitization test (direct peptide reactivity assay, DPRA); settings: HPLC after 72±2 hours, relative value with result of Comparative Example 1 regarded as 100
Excerpt: The product 1, 3-butylene glycol in the present embodiment causes less skin sensitization. Here, the skin sensitization refers to the occurrence of an allergic reaction after the product 1, 3-butylene glycol comes into contact with the skin. In the evaluation of skin sensitization, it has been normal to use experimental animals, but the direct peptide reactivity assay (DPRA), which is an in Chemico test, was adopted as an alternative test in OECD guideline TG442C in 2015 from the viewpoint of animal welfare, and, in the present embodiment as well, the skin sensitization is evaluated by a test in which DPRA is used. In more detail, the skin sensitization is evaluated according to a method described in examples to be described below.
The product 1, 3-butylene glycols obtained in Examples 1 to 3 and Comparative Example 1 were evaluated for skin sensitization according to the following method.
15 mg of cysteine-containing peptide for DPRA manufactured by Scrum Inc. and 30 mL of a 0.05 M phosphate buffer were mixed together, thereby preparing a 0.05 M phosphate buffer solution containing 0.667 mM of the peptide (hereinafter, peptide solution). After one hour elapsed from the preparation of the peptide solution, 750 μL of the peptide solution and 250 μL of acetonitrile were put into each of three brown sample bottles for HPLC, thereby preparing three reference solutions. After two hours elapsed from the preparation of the reference solutions, 750 μL of the peptide solution, 200 μL of acetonitrile and 50 μL of 1, 3-butylene glycol were put into a separate brown sample bottle for HPLC, thereby preparing a specimen solution (specimen solution 1). Furthermore, after four hours elapsed and six hours elapsed from the preparation of the reference solutions, specimen solutions were prepared by the same operation (specimen solution 2 and specimen solution 3). Each of the three reference solutions and the specimen solutions (specimen solution 1, specimen solution 2 and specimen solution 3) was measured by an HPLC analysis after 72±2 hours elapsed from the preparation of each solution, and the three-time average value of the peak heights of peptide in each of the reference solutions and the specimen solutions was calculated. A peptide reduction percentage was calculated from the calculated three-time average value using the following formula (3) and regarded as an evaluation result.
In the present test, a specimen solution of the product 1, 3-butylene glycol of Comparative Example 1 that served as a reference and a specimen solution of the product 1, 3-butylene glycol of each of Examples 1 to 3 were each tested on the same day from the viewpoint of reproducibility.
Analysis device: Agilent 1260 InfinityII manufactured by Agilent Technologies, Inc. […]

Basic coloration test = assay type: physicochemical; settings: with water and potassium hydroxide, heat treatment at 90° C. for one hour, cooled to room temperature; spectral colorimeter
Excerpt: The product 1, 3-butylene glycol in the present embodiment has an advantage of not easily coloring under a basic condition. Coloration under a basic condition can be evaluated by a method described in examples to be described below (basic coloration test). The color saturation (b*) of the CIE color space (JIS Z 8729) when the product 1, 3-butylene glycol of the present embodiment has been evaluated by the method is not particularly limited; however, for example, the average value of three times of measurement is preferably 4.0 or less, more preferably 3.8 or less and particularly preferably 3.5 or less.
The product 1, 3-butylene glycols obtained in Examples 1 to 3 and Comparative Example 1 were evaluated for coloration under a basic condition according to the following method.
13 g of water and 2 g of potassium hydroxide were added to a 100 mL heat-resistant medium bottle and mixed together, and 6 g of the product 1, 3-butylene glycol, which was a subject, was further added thereto. Next, the heat-resistant medium bottle was immersed in a water bath, and a heat treatment was performed at 90° C. for one hour. After the solution that had been subjected to the heat treatment was cooled to room temperature, the color saturation (b*) of the solution was measured with a spectral colorimeter SE2000 manufactured by Nippon Denshoku Industries Co., Ltd. and regarded as a grade.

Compound	Relative value of peptide reduction percentage [1]	Color saturation (b*) (Basic coloration test)
CC(O)CCO (centres unmarked) [Example 1, 1,3-butylene glycol]	45	2.8
CC(O)CCO (centres unmarked) [Example 3, 1,3-butylene glycol]	22	0.7
CC(O)CCO (centres unmarked) [Comparative Example 1, 1,3-butylene glycol]	100	19.6
CC(O)CCO (centres unmarked) [Example 2, 1,3-butylene glycol]	43	3.2
